Reference: US8828908B2, “Herbicidally active bicyclic 1,3-dione compounds” (Syngenta Limited, priority 2007, dated 2014)

Assays:
Type in all cases: in vivo
[1] = system: Echinochloa crus-galli (ECHCG); assay: Example A post-emergence herbicidal glasshouse test; conditions: 312 h, evaluated after 13 days, 100=total damage to plant, 0=no damage
Procedure, shortened: (§1)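 Spray application in 50:50 acetone/water with 0.5% Tween 20, pre-emergence at 1 day or post-emergence at 8 days after sowing. Evaluated visually at 13 days on a 0–100 damage scale.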

Avena fatua (AVEFA) [2] = assay: as above; conditions: 312 h, evaluated after 13 days, 100=total damage to plant, 0=no damage
Procedure, shortened: as §1

Setaria faberi (SETFA) [3] = assay: as above; conditions: 312 h, evaluated after 13 days, 100=total damage to plant, 0=no damage
Procedure, shortened: as §1

[4] = system: Alopecurus myosuroides (ALOMY); assay: as above; conditions: 312 h, evaluated after 13 days, 100=total damage to plant, 0=no damage
Procedure, shortened: as §1

[5] = system: Amaranthus retroflexus (AMARE); assay: as above; conditions: 312 h, evaluated after 13 days, 100=total damage to plant, 0=no damage
Procedure, shortened: as §1

Lolium perenne (LOLPE) [6] = assay: Example B pre-emergence herbicidal greenhouse test; conditions: 480 h, evaluated after 20 days, 100=total damage to plant, 0=no damage
Procedure, shortened: (§2)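 Pots sown with test species were sprayed 1 day after sowing (pre-emergence) or at 10 days post-sowing (post-emergence) with the technical ingredient dissolved in acetone and diluted via emulsifier/solvent formulation. After 20 days (pre) or 15 days (post), effect was rated from 0 (no damage) to 100 (total damage).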

[7] = system: Echinochloa crus-galli (ECHCG); assay: Example B pre-emergence herbicidal greenhouse test; conditions: 480 h, evaluated after 20 days, 100=total damage to plant, 0=no damage
Procedure, shortened: as §2

Avena fatua (AVEFA) [8] = assay: Example B pre-emergence herbicidal greenhouse test; conditions: 480 h, evaluated after 20 days, 100=total damage to plant, 0=no damage
Procedure, shortened: as §2

[9] = system: Digitaria sanguinalis (DIGSA); assay: Example B pre-emergence herbicidal greenhouse test; conditions: 480 h, evaluated after 20 days, 100=total damage to plant, 0=no damage
Procedure, shortened: as §2

Setaria faberi (SETFA) [10] = assay: Example B pre-emergence herbicidal greenhouse test; conditions: 480 h, evaluated after 20 days, 100=total damage to plant, 0=no damage
Procedure, shortened: as §2

[11] = system: Alopecurus myosuroides (ALOMY); assay: Example B pre-emergence herbicidal greenhouse test; conditions: 480 h, evaluated after 20 days, 100=total damage to plant, 0=no damage
Procedure, shortened: as §2

Lolium perenne (LOLPE) [12] = assay: Example B post-emergence herbicidal greenhouse test; conditions: 360 h, evaluated after 15 days, 100=total damage to plant, 0=no damage
Procedure, shortened: as §2

[13] = system: Echinochloa crus-galli (ECHCG); assay: as above; conditions: 360 h, evaluated after 15 days, 100=total damage to plant, 0=no damage
Procedure, shortened: as §2

Avena fatua (AVEFA) [14] = assay: as above; conditions: 360 h, evaluated after 15 days, 100=total damage to plant, 0=no damage
Procedure, shortened: as §2

[15] = system: Digitaria sanguinalis (DIGSA); assay: as above; conditions: 360 h, evaluated after 15 days, 100=total damage to plant, 0=no damage
Procedure, shortened: as §2

Setaria faberi (SETFA) [16] = assay: as above; conditions: 360 h, evaluated after 15 days, 100=total damage to plant, 0=no damage
Procedure, shortened: as §2

[17] = system: Alopecurus myosuroides (ALOMY); assay: as above; conditions: 360 h, evaluated after 15 days, 100=total damage to plant, 0=no damage
Procedure, shortened: as §2

[18] = system: Echinochloa crus-galli (ECHCG); assay: Example A pre-emergence herbicidal glasshouse test; conditions: 312 h, Rate 250 g/ha, evaluated after 13 days, 100=total damage to plant, 0=no damage to plant
Procedure, shortened: as §1

Avena fatua (AVEFA) [19] = assay: Example A pre-emergence herbicidal glasshouse test; conditions: 312 h, Rate 250 g/ha, evaluated after 13 days, 100=total damage to plant, 0=no damage to plant
Procedure, shortened: as §1

Setaria faberi (SETFA) [20] = assay: Example A pre-emergence herbicidal glasshouse test; conditions: 312 h, Rate 250 g/ha, evaluated after 13 days, 100=total damage to plant, 0=no damage to plant
Procedure, shortened: as §1

[21] = system: Alopecurus myosuroides (ALOMY); assay: Example A pre-emergence herbicidal glasshouse test; conditions: 312 h, Rate 250 g/ha, evaluated after 13 days, 100=total damage to plant, 0=no damage to plant
Procedure, shortened: as §1

[22] = system: Amaranthus retroflexus (AMARE); assay: Example A pre-emergence herbicidal glasshouse test; conditions: 312 h, Rate 250 g/ha, evaluated after 13 days, 100=total damage to plant, 0=no damage to plant
Procedure, shortened: as §1

Row | Structure (SMILES) | pest or weed control at 250 g/ha [1] [%] | pest or weed control at 250 g/ha (Avena fatua (AVEFA) [2]) [%] | pest or weed control at 250 g/ha (Setaria faberi (SETFA) [3]) [%] | pest or weed control at 250 g/ha [4] [%] | pest or weed control at 250 g/ha [5] [%] | pest or weed control at 250 g/ha (Lolium perenne (LOLPE) [6]) [%] | pest or weed control at 250 g/ha [7] [%] | pest or weed control at 250 g/ha (Avena fatua (AVEFA) [8]) [%] | pest or weed control at 250 g/ha [9] [%] | pest or weed control at 250 g/ha (Setaria faberi (SETFA) [10]) [%] | pest or weed control at 250 g/ha [11] [%] | pest or weed control at 125 g/ha (Lolium perenne (LOLPE) [12]) [%] | pest or weed control at 125 g/ha [13] [%] | pest or weed control at 125 g/ha (Avena fatua (AVEFA) [14]) [%] | pest or weed control at 125 g/ha [15] [%] | pest or weed control at 125 g/ha (Setaria faberi (SETFA) [16]) [%] | pest or weed control at 125 g/ha [17] [%] | pest or weed control at 250 g/ha [18] [%] | pest or weed control at 250 g/ha (Avena fatua (AVEFA) [19]) [%] | pest or weed control at 250 g/ha (Setaria faberi (SETFA) [20]) [%] | further results
1 | CCc1cc(-c2ccc(Cl)cc2)ccc1C1=C(O)[C@H]2CC[C@H](C2)C1=O [Compound T59, 3-(4′-chloro-3-ethylbiphen-4-yl)bicyclo[3.2.1]octane-2,4-dione] | 100 | 90 | 100 | 100 | 30 | 80 | 100 | 70 | 90 | 100 | 80 | 80 | 100 | 30 | 100 | 100 | 90 | 100 | 70 | 100 | pest or weed control at 250 g/ha [21]: 70%; pest or weed control at 250 g/ha [22]: 0%
2 | Cc1cc(-c2ccc(Cl)cc2)ccc1C1=C(O)[C@H]2CC[C@H](C2)C1=O [Compound T61, 3-(4′-chloro-3-methylbiphen-4-yl)bicyclo[3.2.1]octane-2,4-dione] | 100 | 60 | 100 | 100 | 20 | 90 | 90 | 40 | 100 | 100 | 100 | 30 | 80 | 30 | 100 | 90 | 60 | 80 | 30 | 90 | pest or weed control at 250 g/ha [21]: 40%; pest or weed control at 250 g/ha [22]: 0%
3 | CCc1cc(-c2ccc(Cl)cc2)cc(CC)c1C1=C(O)[C@H]2CC[C@H](C2)C1=O [Compound T62, 3-(4′-chloro-3,5-diethylbiphen-4-yl)bicyclo[3.2.1]octane-2,4-dione] | 100 | 90 | 100 | 100 | 0 | 100 | 100 | 50 | 100 | 100 | 100 | 50 | 100 | 60 | 100 | 100 | 60 | 100 | 80 | 100 | pest or weed control at 250 g/ha [21]: 80%; pest or weed control at 250 g/ha [22]: 20%
4 | CCc1cc(-c2ccc(C)cc2)cc(CC)c1C1=C(O)[C@H]2CC[C@H](C2)C1=O [Compound T63] | 100 | 50 | 100 | 70 | 0 | 100 | 60 | 20 | 90 | 70 | 80 | 10 | 50 | 20 | 60 | 50 | 0 | 90 | 30 | 100 | pest or weed control at 250 g/ha [21]: 50%; pest or weed control at 250 g/ha [22]: 0%
